Results taken from EP4782453A1 (Beyang Therapeutics Co., Ltd., priority 2023, dated 2025).

What was measured:
Format in all cases: cell-based
MEIS1 gene expression [1] = assay: Inhibition of MEIS1 gene expression in human tumor cells (qRT-PCR), MV-4-11; settings: MV4-11, MV-4-11 (carrying MLL-AF4), 48 hours of incubation, relative MEIS1 gene expression vs GAPDH, read-out: MV-4-11 MEISI EC50
Excerpt: (§1) Experimental Example 3: Evaluation of Inhibitory Activity of Compounds Against MEISI Gene Expression in Human Tumor Cells
(§2) The effect of test samples on MEIS1 gene expression in vitro cultured human leukemia cells MV-4-11 (carrying MLL-AF4), MOLM-13 (carrying MLL-AF9), and OCI-AML3 (carrying NPM1c) was studied.
(§3) • Human acute lymphoblastic leukemia cells MV-4-11, purchased from American Type Culture Collection, Catalog Number: CRL-9591; • Human acute myeloid leukemia cells MOLM-13, purchased from COBIOER BIOSCIENCES CO., LTD, Catalog Number: CBP60678; • Human acute myeloid leukemia cells OCI-AML3, purchased from COBIOER BIOSCIENCES CO., LTD, Catalog Number: CBP60817; • MEIS1 Primer/Probe, purchased from IDT, Catalog Number: 40831613; and • GAPDH Primer/Probe, purchased from IDT, Catalog Number: 22214836.
(§4) MV-4-11 cells were cultured in an IMDM medium containing 10% fetal bovine serum, or MOLM-13 and OCI-AML3 cells were cultured in an RPMI-1640 medium containing 20% fetal bovine serum, each supplemented with 100 U·mL^-1 penicillin and 100 µg·mL^-1 streptomycin. These cells were cultured at 37°C with 5% CO2. The suspensions of individual cell lines were prepared in their respective media and seeded into 48-well plates at a density of 100,000 cells/well. On the day of the experiment, a compound stock solution was diluted in a 6-fold gradient using DMSO. Each gradient-diluted stock solution was then further diluted 250-fold with a complete medium to prepare a series of working solutions at different concentrations. Next, 250 µL of working solution (containing the complete medium with a 2-fold serial concentration of the test compound or a positive control compound, or containing a control complete medium) was added to each well. After 48 hours of incubation, cells from the 48-well plate were collected into 1 mL centrifuge tubes, centrifuged at 1000 rpm for 5 minutes, and the complete medium was removed. Cells were washed twice with 1 mL PBS and centrifuged to remove PBS. Total RNA was extracted using the RNeasy Mini Kit (250) (QIAGEN, 74106). The threshold cycle (Ct) value for gene expression was determined using the HiScript II U+ One Step qRT-PCR Probe Kit (Vazyme) (Vazyme, Q223-01), with 3 replicates per sample. The prepared reaction mixture was placed in an ABI 7500 real-time PCR instrument, and the reaction proceeded following the procedures below. [formula]
(§5) Next, for the relative MEIS1 gene expression, the concentration (EC50) that inhibits 50% of relative MEIS1 gene expression was calculated using GraphPad Prism 8 software.

MEIS1 gene expression [2] = assay: Inhibition of MEIS1 gene expression in human tumor cells (qRT-PCR), MOLM-13; settings: MOLM-13 (carrying MLL-AF9), 48 hours of incubation, relative MEIS1 gene expression vs GAPDH
Excerpt: as §1, §2, §3, §4, §5

MEIS1 gene expression [3] = assay: Inhibition of MEIS1 gene expression in human tumor cells (qRT-PCR), OCI-AML3; settings: OCI-AML-3, OCI-AML3 (carrying NPM1c), 48 hours of incubation, relative MEIS1 gene expression vs GAPDH
Excerpt: as §1, §2, §3, §4, §5

EC50 (MEIS1 gene expression [1]) [nM] | EC50 (MEIS1 gene expression [2]) [nM] | EC50 (MEIS1 gene expression [3]) [nM] | Compound
18 |  |  | CC(=O)N1CCC(CN2CC(c3cc(-c4ccc(F)cc4C(=O)N4[C@H](C)COC[C@H]4C)c4c(F)nc(C)n4c3)C2)CC1 [Example 205]
7.6 |  |  | CO[C@@H]1CCCN(CCC[C@H](C(C)C)N2CC(c3cc(-c4ccc(F)cc4C(=O)N4CCOC[C@H]4C)c4c(F)nc(C)n4c3)C2)C1 [Example 305]
13 | 3.4 | 8.9 | Cc1nc(F)c2c(-c3ccc(F)cc3C(=O)N3CCOC[C@H]3C)cc(C3CN([C@H](CCCN4CCC(F)CC4)C(C)C)C3)cn12 [Example 314]
5.7 | 2.5 | 3.9 | CCN(C(=O)c1cc(F)ccc1-c1cc(C2CN([C@H](CCCN3CCN(C)CC3)C(C)C)C2)cn2c(C)nc(F)c12)C(C)C [Example 312-2]
8.3 | 7.7 | 16 | Cc1nc(F)c2c(-c3ccc(F)cc3C(=O)N3CCOC[C@H]3C)cc(C3CN([C@H](CCCN4CCN(C)CC4)C(C)C)C3)cn12 [Example 275, (3R)-4-[5-fluoro-2-(1-fluoro-3-methyl-6-{1-[(3R)-2-methyl-6-(4-methylpiperazin-1-yl)hexan-3-yl]azacyclobutan-3-yl}imidazo[1,5-a]pyridin-8-yl)benzoyl]-3-methylmorpholine]
15 |  |  | Cc1nc(F)c2c(-c3ccc(F)cc3C(=O)N3CCOCC3C)cc(C3CN(C(CCCN4CCCC(O)C4)C(C)C)C3)cn12 (centres unmarked) [Example 292]
55 |  |  | COCCN(C)CCCC(C(C)C)N1CC(c2cc(-c3ccc(F)cc3C(=O)N3CCOCC3C)c3cnn(C)c3c2)C1 (centres unmarked) [Example 185]
2.4 | 2 | 7.5 | CCN(C(=O)c1cc(F)ccc1-c1cc(C2CN([C@H](CCCN3C[C@H]4C[C@@H]3CO4)C(C)C)C2)cn2c(C)ncc12)C(C)C [Example 379, N-ethyl-5-fluoro-2-(3-methyl-6-{1-[(3R)-2-methyl-6-[(1R,4R)-2-oxa-5-azabicyclo[2.2.1]heptan-5-yl]hexan-3-yl]azacyclobutan-3-yl}imidazo[1,5-a]pyridin-8-yl)-N-(isopropyl)benzamide]
7.8 | 9.1 | 17 | Cc1nc(F)c2c(-c3ccc(F)cc3C(=O)N3CCOC[C@H]3C)cc(C3CN([C@H](CN4CCN(C)CC4)C(C)C)C3)cn12 [Example 368-2, (3R)-4-[5-fluoro-2-(1-fluoro-3-methyl-6-{1-[(2S)-3-methyl-1-(4-methylpiperazin-1-yl)butan-2-yl]azacyclobutan-3-yl}imidazo[1,5-a]pyridin-8-yl)benzoyl]-3-methylmorpholine]
1.9 | 2.6 | 13 | CCN(C(=O)c1cc(F)ccc1-c1cc(C2CN([C@H](CCCN3CCN(CCO)CC3)C(C)C)C2)cn2c(C)ncc12)C(C)C [Example 398, N-ethyl-5-fluoro-2-(6-{1-[(3R)-6-[4-(2-hydroxyethyl)piperazin-1-yl]-2-methylhexan-3-yl]azacyclobutan-3-yl}-3-methylimidazo[1,5-a]pyridin-8-yl)-N-(isopropyl)benzamide]
 | 5.9 | 5.8 | CCN(C(=O)c1cc(F)ccc1-c1cc(C2CN([C@@H](C)C3CCN(C(=O)CO)CC3)C2)cn2c(C)nc(F)c12)C(C)C [Example 284-2]
 | 10 | 32 | Cc1nc(F)c2c(-c3ccc(F)cc3C(=O)N3CCOC[C@H]3C)cc(C3CN([C@H](CO[C@H]4CCCN(C)C4)C(C)C)C3)cn12 [Example 321-2, (3R)-4-[5-fluoro-2-(1-fluoro-3-methyl-6-{1-[(2S)-3-methyl-1-{[(3S)-1-methylpiperidin-3-yl]oxy}butan-2-yl]azacyclobutan-3-yl}imidazo[1,5-a]pyridin-8yl)benzoyl]-3-methylmorpholine]
18 |  |  | CNC(=O)N1CCC([C@H](C)N2CC(c3cc(-c4ccc(F)cc4C(=O)N4CCOC[C@H]4C)c4c(F)nc(C)n4c3)C2)CC1 [Example 264-2]
3.5 |  |  | CO[C@@H]1CCN(CCC[C@H](C(C)C)N2CC(c3cc(-c4ccc(F)cc4C(=O)N4CCOC[C@H]4C)c4c(F)nc(C)n4c3)C2)C1 [Example 202]
3.8 |  |  | COCCN(C)CCC[C@H](C(C)C)N1CC(c2cc(-c3ccc(F)cc3C(=O)N3[C@H](C)COC[C@H]3C)c3cnn(C)c3c2)C1 [Example 186-2, [(4R)-4-[3-(4-{2-[(3R,5R)-3,5-dimethylmorpholin-4-carbonyl]-4-fluorophenyl}-1-methyl-1H-indazol-6-yl)azacyclobutan-1-yl]-5-methylhexyl](2-methoxyethyl)methylamine]
6 | 2.3 |  | COCCN(C)CCCC(C(C)C)N1CC(c2cc(-c3ccc(F)cc3C(=O)N(CC(F)F)C(C)C)c3c(F)nc(C)n3c2)C1 (centres unmarked) [Example 142, N-(2,2-difluoroethyl)-5-fluoro-2-[1-fluoro-6-(1-{6-[(2-methoxyethyl)(methyl)amino]-2-methylhexan-3-yl}azacyclobutan-3-yl)-3-methylimidazo[1,5-a]pyridin-8-yl]-N-(isopropyl)benzamide]
16 | 9 |  | CCN(C(=O)c1cc(F)ccc1-c1cc(C2CN(C[C@H]3CC[C@H](NS(=O)(=O)CC)CC3)C2)cn2c(C)nc(F)c12)C(C)C [Example 137]
23 |  |  | Cc1nc(F)c2c(-c3ccc(F)cc3C(=O)N3[C@H](C)COC[C@H]3C)cc(C3CN(CC4CCOCC4)C3)cn12 [Example 208]
4.6 |  |  | CO[C@H]1CCCN(CCC[C@H](C(C)C)N2CC(c3cc(-c4ccc(F)cc4C(=O)N4CCOC[C@H]4C)c4c(F)nc(C)n4c3)C2)C1 [Example 306]
8.5 |  |  | CCNC(=O)N1CCC(CN2CC(c3cc(-c4ccc(F)cc4C(=O)N4CCOC[C@H]4C)c4c(F)nc(C)n4c3)C2)CC1 [Example 261]
3 | 1.1 |  | Cc1nc(F)c2c(-c3ccc(F)cc3C(=O)N3CCOC[C@H]3C)cc(C3CN(C(CC[C@@H]4COCCN4)C(C)C)C3)cn12 (stereo partly drawn) [Example 371, (3R)-4-{5-fluoro-2-[1-fluoro-3-methyl-6-(1-{4-methyl-1-[(3R)-morpholin-3-yl]pentan-3-yl}azacyclobutan-3-yl)imidazo[1,5-a]pyridin-8-yl]benzoyl}-3-methylmorpholine]
15 | 8 |  | CCS(=O)(=O)N[C@H]1CC[C@H](CN2CC(c3cc(-c4ccc(F)cc4C(=O)N(CC(F)F)C(C)C)c4cnc(C)n4c3)C2)CC1 [Example 138]
6.8 | 4 |  | Cc1nc(F)c2c(-c3ccc(F)cc3C(=O)N3CCOC[C@H]3C)cc(C3CN([C@H](CCCN4CCN(C5CC5)CC4)C(C)C)C3)cn12 [Example 350]
24 |  |  | CCN(C(=O)c1cc(F)ccc1-c1cc(C2CCN(Cc3ccc(-c4cc(OC)c(OC)nn4)cc3)C2)cn2c(C)ncc12)C(C)C (centres unmarked) [Example 83]

Compound | EC50 (MEIS1 gene expression [1]) [nM] | EC50 (MEIS1 gene expression [2]) [nM] | EC50 (MEIS1 gene expression [3]) [nM]
CCS(=O)(=O)N[C@H]1CC[C@H](CN2CC(c3cc(-c4ccc(F)cc4C(=O)N4CCOC[C@H]4C)c4cnc(C)n4c3)C2)CC1 [Example 134, N-[(1r,4r)-4-{[3-(8-{4-fluoro-2-[(3R)-3-methylmorpholin-4-carbonyl]phenyl}-3-methylimidazo[1,5-a]pyridin-6-yl)azacyclobutan-1-yl]methyl}cyclohexyl]ethan-1-sulfonamide] | 55 | 53 | 
CCN(C(=O)c1cc(F)ccc1-c1cc(C2(F)CN(C(=O)C3NC4CCC3CC4)C2)cn2c(C)ncc12)C(C)C [Example 75, N-ethyl-5-fluoro-2-(6-{3-fluoro-1-[(1R,3S,4S)-2-azabicyclo[2.2.2]octan-3-carbonyl]azacyclobutan-3-yl}-3-methylimidazo[1,5-a]pyridin-8-yl)-N-(isopropyl) benzamide] | 82 |  | 
CCS(=O)(=O)N[C@H]1CC[C@H](CN2CC(c3cc(-c4ccc(F)cc4C(=O)N4[C@H](C)COC[C@H]4C)c4c(F)nc(C)n4c3)C2)CC1 [Example 197, N-[(1r,4r)-4-{[3-(8-{2-[(3R,5R)-3,5-dimethylmorpholin-4-carbonyl]-4-fluorophenyl}-1-fluoro-3-methylimidazo[1,5-a]pyridin-6-yl)azacyclobutan-1-yl]methyl}cyclohexyl]ethan-1-sulfonamide] | 14 |  | 
